# System: 5-HT4 receptor
# Assay: not given
# Details: WO 9303725; cited from earlier work
row,Compound,5-HT4 receptor antagonist activity (in words)
1,CCCCN1CCC(COC(=O)c2nn(C)c3ccccc23)CC1 [(1-butyl-4-piperidyl)methyl-1-methylindazole-3-carboxylate],has a 5-HT4 receptor antagonist activity

# Target: T1, 5-HT4 receptor (rat oesophageal tunica muscularis mucosae) (Rattus norvegicus, UniProt Q62758)
# T1 construct: oesophageal tunica muscularis mucosae excised from rats; from tissue; host or cells: rat oesophageal tunica muscularis mucosae
# T1 sequence (Q62758 whole entry): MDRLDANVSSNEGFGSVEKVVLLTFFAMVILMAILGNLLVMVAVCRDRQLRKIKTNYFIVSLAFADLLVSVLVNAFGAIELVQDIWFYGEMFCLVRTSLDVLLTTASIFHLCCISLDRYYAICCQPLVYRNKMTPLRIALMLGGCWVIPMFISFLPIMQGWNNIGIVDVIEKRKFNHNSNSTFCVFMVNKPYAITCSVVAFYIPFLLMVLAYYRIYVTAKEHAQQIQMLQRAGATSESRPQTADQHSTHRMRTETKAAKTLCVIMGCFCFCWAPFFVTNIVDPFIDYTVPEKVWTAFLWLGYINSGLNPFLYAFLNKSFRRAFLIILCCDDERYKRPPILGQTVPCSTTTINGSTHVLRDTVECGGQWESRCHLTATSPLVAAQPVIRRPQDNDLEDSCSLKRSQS
# Assay: 5-HT4 agonist activity: relaxation of carbachol-contracted rat oesophageal tunica muscularis mucosae
# Assay type: cell-based
# Details: not given
# Procedure: The agonist activities of the indazole derivatives of the present invention and Mosapride were determined by the following method, that is, the method determining 5-HT4 agonist activity by using rat oesophageal tunica muscularis mucosae (Naunyn-Schmiedeberg's Arch. Pharmacol., Vol. 343, 439-446, 1991).
# According to the method of the literature, the oesophageal tunica muscularis mucosae excised from rats were suspended in an organ bath containing Krebs-Henseleit solution aerated with a mixed gas (95% O2, 5% CO2) and contracted with carbachol (1×10^-6 M). After the contraction was stabilized, the cumulative administration of the compounds was performed to determine the relaxation of the rat oesophagus pre-contracted with carbachol. The concentration (ED50) to cause 50% relaxation of the carbachol-induced contraction was measured. The result is expressed in terms of -log ED50 and shown in the following table in which higher numerical value indicates higher activity.
row,Compound,EC50
1,"CCCCN1CCN(CCCNC(=O)c2nn(CCC)c3ccccc23)CC1 [Compound 1, N-[3-(4-n-Butyl-1-piperazinyl)propyl]-1-n-propylindazole-3-carboxamide]",10.5 µM
2,"CCCn1nc(C(=O)NCCN2CCN(C)CC2)c2ccccc21 [Compound 2, N-[2-(4-Methyl-1-piperazinyl)ethyl]-1-n-propylindazole-3-carboxamide]",20.4 µM
3,"CCCCN1CCN(CCNC(=O)c2nn(CCC)c3ccccc23)CC1 [Compound 3, N-[2-(4-n-Butyl-1-piperazinyl)ethyl]-1-n-propylindazole-3-carboxamide]",2.4 µM
4,"CCCn1nc(C(=O)NCC=C2CCN(C)CC2)c2ccccc21 [Compound 4, N-[2-(1-Methyl-4-piperidylidene)ethyl]-1-n-propylindazole-3-carboxamide]",9.77 µM
5,"CCCCN1CCC(=CCNC(=O)c2nn(CCC)c3ccccc23)CC1 [Compound 5, N-[2-(1-n-Butyl-4-piperidylidene)ethyl]-1-n-propylindazole-3-carboxamide]",0.437 µM
6,"CCCCN1CCCC(NC(=O)c2nn(CCC)c3ccccc23)CCC1 [Compound 6, N-(1-n-Butyl-5-octahydroazocinyl)-1-n-propylindazole-3-carboxamide]",6.46 µM
7,"CCCn1nc(C(=O)NCC2CCN(C)CC2)c2ccccc21 [Compound 7, N-(1-Methyl-4-piperidyl)methyl-1-n-propylindazole-3-carboxamide]",5.01 µM
8,"CCCn1nc(C(=O)NCCC2CCN(C)CC2)c2ccccc21 [Compound 8, N-[2-(1-Methyl-4-piperidyl)ethyl]-1-n-propylindazole-3-carboxamide]",10.7 µM
9,"CCCn1nc(C(=O)NCC=C2CCN(Cc3ccc(F)cc3)CC2)c2ccccc21 [Compound 12, N-[2-(1-p-Fluorobenzyl-4-piperidylidene)ethyl]-1-n-propylindazole-3-carboxamide]",3.39 µM
10,"CCCCN1CCN(CCNC(=O)c2nn(C(C)CC)c3ccccc23)CC1 (stereo not drawn) [Compound 13, N-[2-(4-n-Butyl-1-piperazinyl)ethyl]-1-sec-butylindazole-3-carboxamide]",5.5 µM
11,"CCCCN1CCN(CCNC(=O)c2nn(C(CC)CC)c3ccccc23)CC1 [Compound 14, N-[2-(4-n-Butyl-1-piperazinyl)ethyl]-1-(3-pentyl)indazole-3-carboxamide]",6.03 µM
12,"CCCn1nc(C(=O)NCCN2CCN(Cc3ccc(F)cc3)CC2)c2ccccc21 [Compound 15, N-[2-(4-p-Fluorobenzyl-1-piperazinyl)ethyl]-1-n-propylindazole-3-carboxamide]",6.76 µM
13,"C=CCn1nc(C(=O)NCCN2CCN(Cc3ccc(F)cc3)CC2)c2ccccc21 [Compound 16, N-[2-(4-p-Fluorobenzyl-1-piperazinyl)ethyl]-1-allylindazole-3-carboxamide]",7.41 µM
14,"CCCn1nc(C(=O)NC2CCN(Cc3ccccc3)CC2)c2ccccc21 [Compound 17, N-(1-Benzyl-4-piperidyl)-1-n-propylindazole-3-carboxamide]",3.39 µM
15,"CCCCN1CCC(CNC(=O)c2nn(CCC)c3ccccc23)CC1 [Compound 18, N-(1-n-Butyl-4-piperidyl)methyl-1-n-propylindazole-3-carboxamide]",7.94 µM
16,"CCCCN1CCC(CCNC(=O)c2nn(CCC)c3ccccc23)CC1 [Compound 19, N-[2-(1-n-Butyl-4-piperidyl)ethyl]-1-n-propylindazole-3-carboxamide]",1.29 µM
17,"CCCn1nc(C(=O)NC2CCNCC2)c2ccccc21 [Compound 20, N-(4-Piperidyl)-1-n-propylindazole-3-carboxamide]",112 µM
18,"CCCn1nc(C(=O)NCC2CCNCC2)c2ccccc21 [Compound 21, N-(4-Piperidyl)methyl-1-n-propylindazole-3-carboxamide]",47.9 µM
19,"CCCn1nc(C(=O)NC2CCN(C)CC2)c2ccccc21 [Compound 22, N-(1-Methyl-4-piperidyl)-1-n-propylindazole-3-carboxamide]",6.92 µM
20,"CCCCN1CCC(NC(=O)c2nn(CCC)c3ccccc23)CC1 [Compound 23, N-(1-n-Butyl-4-piperidyl)-1-n-propylindazole-3-carboxamide]",2.82 µM
21,"C=CCN1CCN(CCNC(=O)c2nn(CCC)c3ccccc23)CC1 [Compound 25, N-[2-(4-Allyl-1-piperazinyl)ethyl]-1-n-propylindazole-3-carboxamide]",6.03 µM
22,"CCCN1CCN(CCNC(=O)c2nn(CCC)c3ccccc23)CC1 [Compound 26, N-[2-(4-n-Propyl-1-piperazinyl)ethyl]-1-n-propylindazole-3-carboxamide]",8.91 µM
23,"CCCCCN1CCN(CCNC(=O)c2nn(CCC)c3ccccc23)CC1 [Compound 27, N-[2-(4-n-Pentyl-1-piperazinyl)ethyl]-1-n-propylindazole-3-carboxamide]",2.69 µM
24,"CCCn1nc(C(=O)NCCN2CCN(Cc3ccc(OC)cc3)CC2)c2ccccc21 [Compound 28, N-[2-(4-p-Methoxybenzyl-1-piperazinyl)ethyl]-1-n-propylindazole-3-carboxamide]",1.58 µM
25,"CCCCN1CCN(CCNC(=O)c2nn(CC)c3ccccc23)CC1 [Compound 29, N-[2-(4-n-Butyl-1-piperazinyl)ethyl]-1-ethylindazole-3-carboxamide]",10.2 µM
26,"CCCCN1CCN(CCNC(=O)c2nn(C(C)C)c3ccccc23)CC1 [Compound 30, N-[2-(4-n-Butyl-1-piperazinyl)ethyl]-1-isopropylindazole-3-carboxamide]",2.95 µM
27,"CCCCN1CCN(CCNC(=O)c2nn(C3CCCC3)c3ccccc23)CC1 [Compound 31, N-[2-(4-n-Butyl-1-piperazinyl)ethyl]-1-cyclopentylindazole-3-carboxamide]",5.01 µM

# Same assay, conditions: concentration causing 50% relaxation of the carbachol (1×10^-6 M)-induced contraction; cumulative administration; read-out: Activity (-log ED50) (converted)
row,Compound,EC50
1,"O=C(NCC=C1CCN(Cc2ccc(F)cc2)CC1)c1n[nH]c2ccccc12 [Compound 9, N-[2-(1-p-Fluorobenzyl-4-piperidylidene)ethyl]-1H-indazole-3-carboxamide]",7.41 µM
2,"O=C(NCCN1CCN(Cc2ccc(F)cc2)CC1)c1n[nH]c2ccccc12 [Compound 11, N-[2-(4-p-Fluorobenzyl-1-piperazinyl)ethyl]-1H-indazole-3-carboxamide]",12.6 µM
3,"CCCCN1CCN(CCNC(=S)c2nn(CCC)c3ccccc23)CC1 [Compound 32, N-[2-(4-n-Butyl-1-piperazinyl)ethyl]-1-n-propylindazole-3-thiocarboxamide]",10.5 µM
4,"CCCCN1CCN(CCNCc2nn(CCC)c3ccccc23)CC1 [Compound 33, 3-{N-[2-(4-n-Butyl-1-piperazinyl)ethyl]aminomethyl}-1-n-propylindazole]",29.5 µM

# System: not given
# Assay: not given
# Details: U.S. Pat. No. 3,145,215; cited from earlier work
row,Compound,hypotensive activity (in words)
1,CN1CCN(CCNC(=O)c2n[nH]c3ccccc23)CC1 [N-[2-(4-methyl-1-piperazinyl)ethyl]-1H-indazole-3-carboxamide],has hypotensive activity

# From patent US5945434A, “Indazole derivatives having monocyclic amine” (Nisshin Flour Milling Co., Ltd., priority 1995, dated 1999)
